Data from patent US20240207292A1, “BORONIC ACID COMPOUNDS, COMPOSITIONS AND METHODS” (Trustees of Tufts College, priority 2021, published 2024).
Like-named read-outs stand apart in the source and are kept apart here. Square brackets hold non-standard residues; d marks the D form. Peptide text beside a SMILES is read from it. * marks the point of attachment. X1 = O=C1CN2CCN3CCN(CC(=O)*)CCN(CC2)CC(=O)O[CH2][Lu]([CH2]CO1)[CH2]COC(=O)C3; boroPro = OB(O)[C@@H]1CCCN1*

Tests used:
[1] = Stability of bortezomib with excipients in water, propyleneglycol (PG) or butylene glycol (BG) at 1 mg/mL, 50° C.; format: physicochemical; conditions: with N-Acetyl-L-methionine
Procedure: In Examples 1-3 below, Tables 1, 2 and 3 summarize the effectiveness of sulfur compounds in stabilizing bortezomib such as against oxidation and decomposition reactions. For each of the following Examples 1-3, the following procedures were used: Samples preparation: 100 mg of the API (active pharmaceutical ingredient) was suspended into 100 mL of water or other ratioed solvents, mixed well by using a vortex mixer and sonicator (with gentle warm if necessary) to make a 1 mg/mL of solution A. 10 mg of each excipient was weighed into avial, and 1 mL of solution A was added, mixed well to give the test solution B (10:1 of excipient/API). Took 100 μL of solution B and diluted into 1 mL with solution A to give the test solution C (1:1 of excipient/API). Took 100 μL of solution C and diluted into 1 mL with solution A to give the test solution D (0.1:1 of excipient/API). For solid powderform of Bortezomib with the excipients, method in US 2005/0282742 A1 was adopted. […]
Aqueous formulations of bortezomib together with a number of sulfur-containing compounds in varying weight ratios were evaluated for stability over time based on purity of Bortezomib in water, propyleneglycol (PG) or butylene glycol (BG) at 1 mg/mL, 50° C.

[2] = tested on: HEK-mFAP tumor xenografts
[3] = tested on: HEK-mFAP tumor xenografts; test: Efficacy and survival study, single injection of [^177Lu]-6522; format: in vivo, Fox Chase SCID mice
Procedure: The aim of the study was to assess the therapeutic efficacy of a single injection of [^177Lu]-6522 by evaluation tumor growth delay and median survival.
[^177Lu]-6522 is provided as described in Example 24 above. The following treatment compositions were prepared: • 1. Vehicle (selected formulation, 100 μL) • 2. Precursor (6522 compound) (80 μL) • 3. [.^77Lu]-6522 15 MBq (80 μL) • 4. [.^77Lu]-6522 30 MBq (80 μL) • 5. [.^77Lu]-6522 60 MBq (80 μL)
A total of 30 HEK-mFAP tumor-bearing mice were used for the study. […]
Mouse health checks were performed throughout the study on a weekly basis including body weight measurements. Tumor growth was monitored weekly with caliper measurements (tumor volume=length×width^2×0.5). […]. Mice were housed 5 to a cage with ad libitum access to food and water in 20° C. ambient temperature, 40%-50% humidity, and 12-hour light/12-hour dark cycle.
The mice were randomized into 5 groups, n=6 mice per group. The treatment compositions (1 through 5 above) were injected IV through the tail vein using a catheter (mounted with a 30 Ga needle). Injected doses were determined using a well counter (Capintec calibration). Tumor growth was monitored weekly with caliper measurements, and the mice were followed for survival.

Q: Which protection of bortezomib [1] does the source give for `CSCC[C@H](NC(C)=O)C(=O)O` [N-Acetyl-L-methionine, N-acetyl-L-methionine] here?
A: The protection of bortezomib was “essentially complete protection”.

Q: What does the source list for `CC(C)[C@H](NC(=O)CNC(=O)CNC(=O)CN1CCN2CCN3CCN(CC1)CC(=O)O[CH2][Lu]([CH2]COC(=O)C2)[CH2]COC(=O)C3)C(=O)N[C@H](C)C(=O)N1CCC[C@H]1B(O)O` [[^177Lu]-6522] (X1-GGV[dA]-boroPro)?
A: kidneys uptake ([2]; 4 h p.i., IV): 2.35 ± 0.51 % ID/g; tumor uptake ([2]; 4 h p.i., IV, HEK-mFAP tumor-bearing mice): 33.04 ± 5.29 % ID/g; Blood uptake, Mean (% ID/g) ([2]; 4 h p.i., IV): 0.3063 % ID/g; Blood uptake, Mean (% ID/g) ([2]; 24 h p.i., IV): 0.0085 % ID/g; Blood uptake, Mean (% ID/g) ([2]; 48 h p.i., IV): 0.0029 % ID/g; Blood uptake, Mean (% ID/g) ([2]; 168 h p.i., IV): 0.0015 % ID/g; Bone uptake, Mean (% ID/g) ([2]; 4 h p.i., IV): 1.8037 % ID/g; Bone uptake, Mean (% ID/g) ([2]; 24 h p.i., IV): 0.2658 % ID/g; Bone uptake, Mean (% ID/g) ([2]; 48 h p.i., IV): 0.4106 % ID/g; Bone uptake, Mean (% ID/g) ([2]; 168 h p.i., IV): 0.3959 % ID/g; Brain uptake, Mean (% ID/g) ([2]; 4 h p.i., IV): 0.0281 % ID/g; Brain uptake, Mean (% ID/g) ([2]; 24 h p.i., IV): 0.0036 % ID/g; Brain uptake, Mean (% ID/g) ([2]; 48 h p.i., IV): 0.0033 % ID/g; Brain uptake, Mean (% ID/g) ([2]; 168 h p.i., IV): 0.0020 % ID/g; Heart uptake, Mean (% ID/g) ([2]; 4 h p.i., IV): 0.1528 % ID/g; Heart uptake, Mean (% ID/g) ([2]; 24 h p.i., IV): 0.0332 % ID/g; Heart uptake, Mean (% ID/g) ([2]; 48 h p.i., IV): 0.0311 % ID/g; Heart uptake, Mean (% ID/g) ([2]; 168 h p.i., IV): 0.0256 % ID/g; Kidneys uptake, Mean (% ID/g) ([2]; 4 h p.i., IV): 2.3525 % ID/g; Kidneys uptake, Mean (% ID/g) ([2]; 24 h p.i., IV): 0.9585 % ID/g; Kidneys uptake, Mean (% ID/g) ([2]; 48 h p.i., IV): 0.5318 % ID/g; Kidneys uptake, Mean (% ID/g) ([2]; 168 h p.i., IV): 0.1670 % ID/g; Liver uptake, Mean (% ID/g) ([2]; 4 h p.i., IV): 0.3774 % ID/g; Liver uptake, Mean (% ID/g) ([2]; 24 h p.i., IV): 0.1585 % ID/g; Liver uptake, Mean (% ID/g) ([2]; 48 h p.i., IV): 0.1237 % ID/g; Liver uptake, Mean (% ID/g) ([2]; 168 h p.i., IV): 0.0725 % ID/g; Lung uptake, Mean (% ID/g) ([2]; 4 h p.i., IV): 0.3331 % ID/g; Lung uptake, Mean (% ID/g) ([2]; 24 h p.i., IV): 0.0306 % ID/g; Lung uptake, Mean (% ID/g) ([2]; 48 h p.i., IV): 0.0312 % ID/g; Lung uptake, Mean (% ID/g) ([2]; 168 h p.i., IV): 0.0257 % ID/g; Muscle uptake, Mean (% ID/g) ([2]; 4 h p.i., IV): 0.4649 % ID/g; Muscle uptake, Mean (% ID/g) ([2]; 24 h p.i., IV): 0.0315 % ID/g; Muscle uptake, Mean (% ID/g) ([2]; 48 h p.i., IV): 0.0518 % ID/g; Muscle uptake, Mean (% ID/g) ([2]; 168 h p.i., IV): 0.0604 % ID/g; Pancreas uptake, Mean (% ID/g) ([2]; 4 h p.i., IV): 0.2167 % ID/g; Pancreas uptake, Mean (% ID/g) ([2]; 24 h p.i., IV): 0.0347 % ID/g; Pancreas uptake, Mean (% ID/g) ([2]; 48 h p.i., IV): 0.0275 % ID/g; Pancreas uptake, Mean (% ID/g) ([2]; 168 h p.i., IV): 0.0197 % ID/g; Skin uptake, Mean (% ID/g) ([2]; 4 h p.i., IV): 0.9769 % ID/g; Skin uptake, Mean (% ID/g) ([2]; 24 h p.i., IV): 0.1158 % ID/g; Skin uptake, Mean (% ID/g) ([2]; 48 h p.i., IV): 0.0906 % ID/g; Skin uptake, Mean (% ID/g) ([2]; 168 h p.i., IV): 0.0837 % ID/g; Small intestine uptake, Mean (% ID/g) ([2]; 4 h p.i., IV): 0.2091 % ID/g; Small intestine uptake, Mean (% ID/g) ([2]; 24 h p.i., IV): 0.0580 % ID/g; Small intestine uptake, Mean (% ID/g) ([2]; 48 h p.i., IV): 0.0499 % ID/g; Small intestine uptake, Mean (% ID/g) ([2]; 168 h p.i., IV): 0.0277 % ID/g; Spleen uptake, Mean (% ID/g) ([2]; 4 h p.i., IV): 0.2587 % ID/g; Spleen uptake, Mean (% ID/g) ([2]; 24 h p.i., IV): 0.1418 % ID/g; Spleen uptake, Mean (% ID/g) ([2]; 48 h p.i., IV): 0.1340 % ID/g; Spleen uptake, Mean (% ID/g) ([2]; 168 h p.i., IV): 0.1437 % ID/g; Stomach uptake, Mean (% ID/g) ([2]; 4 h p.i., IV): 0.1706 % ID/g; Stomach uptake, Mean (% ID/g) ([2]; 24 h p.i., IV): 0.0528 % ID/g; Stomach uptake, Mean (% ID/g) ([2]; 48 h p.i., IV): 0.0331 % ID/g; Stomach uptake, Mean (% ID/g) ([2]; 168 h p.i., IV): 0.0210 % ID/g; Tumor uptake, Mean (% ID/g) ([2]; 4 h p.i., IV): 33.0435 % ID/g; Tumor uptake, Mean (% ID/g) ([2]; 24 h p.i., IV): 12.9944 % ID/g; Tumor uptake, Mean (% ID/g) ([2]; 48 h p.i., IV): 7.6749 % ID/g; Tumor uptake, Mean (% ID/g) ([2]; 168 h p.i., IV): 3.9910 % ID/g; kidneys uptake ([2]; day 7 p.i., IV): 0.17 ± 0.02 % ID/g; localization in tumor and normal tissue ([2]; up to 168 h p.i.): high localization in tumor xenografts and low normal tissue uptake; survival benefit ([3]; 15 and 30 MBq groups): did not translate in a survival benefit; tumor growth delay ([3]; 15 and 30 MBq groups): tumor growth delay was observed; survival benefit compared to the vehicle or precursor group ([3]; 60 MBq single IV injection): statically significant survival benefit
